One test relates to osteoclast differentiation. In words: Inhibitory effects on osteoclast differentiation (co-culture of bone marrow cells with osteoblast, TRAP staining). Format: cell-based, mice. The following applies: Mus musculus, Osteoclast, 168 h, read-out: % inhibitory activity on osteoclastogenesis. The procedure:
The effect of benzamidine derivatives of the present invention on osteoclast proliferation and differentiation process was evaluated via co-culture with osteoblast.
Tibia and Femora were aseptically ectomized from male ddY mice of 6-8 weeks to harvest bone marrow cells by using a syringe (21G, Korea Green Cross).
The bone marrow cells were suspended in 5 mL α-MEM medium (Gibco BRL Co.) containing sodium bicarbonate (2.0 g/L), streptomycin (100 mg/L) and penicillin ([…]). The harvested cells were centrifuged at 600×g for 5 mins to collect the whole quantity. To remove the red blood cells within bone marrow cells, 3 mL of Tris HCl (0.83% NH4Cl, pH7.5) was added and well mixed. After centrifuging above cells, the numbers of bone marrow cells were counted and then, the bone marrow cells were immediately used for co-culture system with osteoblast.
The calvaria were aseptically ectomized from neonate ICR mice of 1˜2 days, washed with PBS solution and incubated with a mixture of enzyme solution (0.2% collagenase and 0.1% dispase) at 37° C. gentle shaker. This procedure was sequentially repeated (10, 10, 10, 20, 20 and 20 mins), and then the calvaria cells having the characteristics of osteoblast mostly released from III-VI digestion groups were collected and washed with the medium (serum-free α-MEM). The washed cells were cultivated in α-MEM medium containing 10% FBS for 2˜3 days. After subculturing, these cells were used for this experiment, and diluted to reach the concentration of 1×10^6 cell/mL for storage at −70° C.
Benzamidine derivatives of the present invention were dissolved in a sterile distilled water or ethanol to make desired concentrations following dilution. The final volume of specimen added to the medium was determined at the ratio of 1:1000.
Bone marrow cells prepared, in the above and osteoblast from calvaria were co-cultured for osteoclast differentiation. Both bone marrow cells (25,000 cells/cm^2) and osteoblast (10,000 cells/cm^2) were plated on a 96 well plate in α-MEM medium containing FBS with specimen, and then cultured with test materials for 7 days. Differentiation factors, such as dexamethasone (10^−7M) and vitamin D3 (10^−8M), were also continuously added to the medium from the first day of cultivation. The medium was changed with fresh media containing a mixture of specimens and differentiation factors every 2˜3 day.
TRAP was used as a marker to measure osteoclast in consideration of its characteristics showing a positive reaction to TRAP staining solution. TRAP staining solution was prepared in a manner that 5 mg of naphtol AS-MS phosphate (sigma N-4875), a substrate and 25 mg of coloring agent (Fast Red Violet LB salt) were dissolved in N,N-dimethylformamide (about 0.5 mL), 0.1N NaHCO3 buffer solution (50 mL) containing 50 mM tartaric acid was added, and the reaction mixture was stored at refrigerator prior to use.
After culturing the cells for 7 days, the medium was removed from the wells, the cells were once washed with PBS solution and fixed to PBS containing 10% formalin for 2˜5 mins. The cells were fixed again in a mixed solution of ethanol and acetone (1/1) for about 1 min, and dried off. The cells were further treated by TRAP staining solution for 15 mins and washed with PBS. The experimental results were measured by counting the number of osteoclasts with 3 or more nuclei showing TRAP-positive reaction under a microscopic examination. Each of tests was confirmed over three times for gaining more reliable data.
As shown in the following table 7, the inhibitory effect of each experimental group on the differentiation of osteoclast versus controls was expressed by inhibitory percentage value.
Regarding `CN(CCN1CCOCC1)c1nc(-c2ccc(OCCCCCOc3ccc(C(=N)NO)cc3)cc2)c(C2CCCC2)s1` [Example 153, N-hydroxy-4-(5-[4-(5-cyclopentyl-2-[methyl-(2-morpholinoethyl)amino]-1,3-thiazol-4-yl)phenoxy]pentoxy)-benzamidine], the inhibition at 1 µM was determined as 96.4%.

Still in this test, the particulars now being: Mus musculus, Osteoclast, 168 h; 1 m; co-culture of bone marrow cells and osteoblast, 7 days, TRAP-positive osteoclasts versus controls; read-out: % inhibitory activity on osteoclastogenesis.
Regarding `CCCNc1nc(-c2ccc(OCCCCCOc3ccc(C(=N)NO)cc3)cc2)c(C2CCCC2)s1` [Example 113, N-hydroxy-4-(5-[4-(5-cyclopentyl-2-propylamino-1,3-thiazol-4-yl)phenoxy]pentoxy)-benzamidine], the inhibition at 1 µM came to 86.7%.
For the compound `CC(C)c1sc(NCc2cccnc2)nc1-c1ccc(OCCCCCOc2ccc(C(=N)NO)cc2)cc1` [Example 114, N-hydroxy-4-(5-[4-(5-isopropyl-2-[(pyridin-3-yl-methyl)amino]-1,3-thiazol-4-yl)phenoxy]pentoxy)-benzamidine], the inhibition at 1 µM is 50.9%.
The same measure, in the same setting: the result for `CNc1nc(-c2ccc(OCCCCCOc3ccc(C(=N)NO)cc3)cc2)cs1` [Example 116, N-hydroxy-4-(5-[4-(2-methylamino-1,3-thiazol-4-yl)phenoxy]pentoxy)-benzamidine] reads 51.3%.
As to `COCCN(CCOC)c1nc(-c2ccc(OCCCCCOc3ccc(C(=N)NO)cc3)cc2)c(C)s1` [Example 122, N-hydroxy-4-(5-[4-(2-(bis-(2-methoxyethyl)-amino)-5-methyl-1,3-thiazol-4-yl)phenoxy]pentoxy)-benzamidine], the inhibition at 1 µM was determined as 55.8%.
With `Cc1sc(N(C)CCN2CCOCC2)nc1-c1ccc(OCCCCCOc2ccc(C(=N)NO)cc2)cc1` [Example 123, N-hydroxy-4-(5-[4-(5-methyl-2-(methyl-(2-morpholinoethyl)-amino)-1,3-thiazol-4-yl)phenoxy]pentoxy)-benzamidine], the inhibition at 1 µM stood at 26.3%.
As to `CCN(Cc1ccccc1)c1nc(-c2ccc(OCCCCCOc3ccc(C(=N)NO)cc3)cc2)c(C)s1` [Example 127, N-hydroxy-4-(5-[4-(2-(benzyl-ethyl-amino)-5-methyl-1,3-thiazol-4-yl)phenoxy]pentoxy)-benzamidine], the inhibition at 1 µM turned out to be 41.5%.
For the compound `Cc1sc(N(CCO)CCO)nc1-c1ccc(OCCCCCOc2ccc(C(=N)NO)cc2)cc1` [Example 128, N-hydroxy-4-(5-[4-(2-(bis-(2-hydroxyethyl)-amino)-5-methyl-1,3-thiazol-4-yl)phenoxy]pentoxy)-benzamidine], the inhibition at 1 µM is 75.5%.
On to `CCc1sc(N(C)CCN2CCOCC2)nc1-c1ccc(OCCCCCOc2ccc(C(=N)NO)cc2)cc1` [Example 131, N-hydroxy-4-(5-[4-(5-ethyl-2-(methyl-(2-morpholinoethyl)-amino)-1,3-thiazol-4-yl)phenoxy]pentoxy)-benzamidine], for which the inhibition at 1 µM stood at 69%.
Take `CCc1sc(N(CC)Cc2ccccc2)nc1-c1ccc(OCCCCCOc2ccc(C(=N)NO)cc2)cc1` [Example 135, N-hydroxy-4-(5-[4-(2-(benzyl-ethyl-amino)-5-ethyl-1,3-thiazol-4-yl)phenoxy]pentoxy)-benzamidine]: the inhibition at 1 µM was found to be 48.6%.
With `CC(C)c1sc(N(C)CCO)nc1-c1ccc(OCCCCCOc2ccc(C(=N)NO)cc2)cc1` [Example 140, N-hydroxy-4-(5-[4-(2-((2-hydroxyethyl)-methyl-amino)-5-isopropyl-1,3-thiazol-4-yl)phenoxy]pentoxy)-benzamidine], the inhibition at 1 µM came out at 18.9%.
On to `CCS(=O)(=O)N(C)c1nc(-c2ccc(OCCCCCOc3ccc(C(=N)NO)cc3)cc2)c(C(C)C)s1` [Example 142, N-hydroxy-4-(5-[4-(2-(ethanesulfonyl-methyl-amino)-5-isopropyl-1,3-thiazol-4-yl)phenoxy]pentoxy)-benzamidine], for which the inhibition at 1 µM stood at 54.1%.
In the case of `CCCCc1sc(N(C)CCO)nc1-c1ccc(OCCCCCOc2ccc(C(=N)NO)cc2)cc1` [Example 143, N-hydroxy-4-(5-[4-(5-butyl-2-((2-hydroxyethyl)-methyl-amino)-1,3-thiazol-4-yl)phenoxy]pentoxy)-benzamidine], the inhibition at 1 µM turned out to be 69.5%.
As to `CCCCc1sc(N(C)CCN2CCOCC2)nc1-c1ccc(OCCCCCOc2ccc(C(=N)NO)cc2)cc1` [Example 144, N-hydroxy-4-(5-[4-(5-butyl-2-(methyl-(2-morpholinoethyl)amino)-1,3-thiazol-4-yl)phenoxy]pentoxy)-benzamidine], the inhibition at 1 µM is 94.4%.
For the compound `CN(CCN1CCOCC1)c1nc(-c2ccc(OCCCCCOc3ccc(C(=N)NO)cc3)cc2)c(CC2CCCC2)s1` [Example 148, N-hydroxy-4-(5-[4-(5-cyclopentylmethyl-2-(methyl-(2-morpholinoethyl)amino)-1,3-thiazol-4-yl)phenoxy]pentoxy)-benzamidine], the inhibition at 1 µM stood at 90.1%.
Turning to `CCCN(CCC)c1nc(-c2ccc(OCCCCCOc3ccc(C(=N)NO)cc3)cc2)c(CC2CCCC2)s1` [Example 149, N-hydroxy-4-(5-[4-(5-cyclopentylmethyl-2-dipropylamino-1,3-thiazol-4-yl)phenoxy]pentoxy)-benzamidine], the inhibition at 1 µM came out at 79.2%.
On the same count and under the same terms, the result for `CCCCc1sc(N(CC)CC)nc1-c1ccc(OCCCCCOc2ccc(C(=N)NO)cc2)cc1` [Example 150, N-hydroxy-4-(5-[4-(5-butyl-2-diethylamino-1,3-thiazol-4-yl)phenoxy]pentoxy)-benzamidine] reads 95.4%; that for `CC(C)Cc1sc(N(C)CCN2CCOCC2)nc1-c1ccc(OCCCCCOc2ccc(C(=N)NO)cc2)cc1` [Example 154, N-hydroxy-4-(5-[4-(5-isobutyl-2-[methyl-(2-morpholinoethyl)amino]-1,3-thiazol-4-yl)phenoxy]pentoxy)-benzamidine], 9.3%.
Consider `CCN(CC)c1nc(-c2ccc(OCCCCCOc3ccc(C(=N)NO)cc3)cc2)c(C2CCCC2)s1` [Example 156, N-hydroxy-4-(5-[4-(5-cyclopentyl-2-diethylamino-1,3-thiazol-4-yl)phenoxy]pentoxy)-benzamidine], for which the inhibition at 1 µM is 15.6%.
As to `CCCN(CCC)c1nc(-c2ccc(OCCCCCOc3ccc(C(=N)NO)cc3)cc2)c(C(C)C)s1` [Example 157, N-hydroxy-4-(5-[4-(5-isopropyl-2-dipropylamino-1,3-thiazol-4-yl)phenoxy]pentoxy)-benzamidine], the inhibition at 1 µM is 92.3%.
With `CCN(CC)c1nc(-c2ccc(OCCCCCOc3ccc(C(=N)NO)cc3)cc2)c(CC2CCCC2)s1` [Example 160, N-hydroxy-4-(5-[4-(5-cyclopentylmethyl-2-diethylamino-1,3-thiazol-4-yl)phenoxy]pentoxy)-benzamidine], the inhibition at 1 µM is 83.7%.
The same measure, in the same setting: next, `CC(C)c1sc(N(C)C)nc1-c1ccc(OCCCCCOc2ccc(C(=N)NO)cc2)cc1` [Example 161, N-hydroxy-4-(5-[4-(5-isopropyl-2-dimethylamino-1,3-thiazol-4-yl)phenoxy]pentoxy)-benzamidine]: 89.1%; `CCN(CC)c1nc(-c2ccc(OCCCCCOc3ccc(C(=N)NO)cc3)cc2)c(C(C)C)s1` [Example 162, N-hydroxy-4-(5-[4-(5-isopropyl-2-diethylamino-1,3-thiazol-4-yl)phenoxy]pentoxy)-benzamidine]: 87.4%.
As for `CN(C)c1nc(-c2ccc(OCCCCCOc3ccc(C(=N)NO)cc3)cc2)c(CC2CCCC2)s1` [Example 163, N-hydroxy-4-(5-[4-(5-cyclopentylmethyl-2-dimethylamino-1,3-thiazol-4-yl)phenoxy]pentoxy)-benzamidine], the inhibition at 1 µM stood at 88.1%.

Still in this test, the particulars now being: co-culture of bone marrow cells and osteoblast, 7 days, TRAP-positive osteoclasts versus controls.
Regarding `CCc1sc(NCc2cccnc2)nc1-c1ccc(OCCCCCOc2ccc(C(=N)NO)cc2)cc1` [Example 117], the “% inhibitory activity on osteoclastogenesis” value is on record as 2.7%.
Take `CCc1sc(N(Cc2cccnc2)Cc2cccnc2)nc1-c1ccc(OCCCCCOc2ccc(C(=N)NO)cc2)cc1` [Example 137]: the “% inhibitory activity on osteoclastogenesis” value amounted to 62.7%.

The values above are taken from patent US8178688B2, “Benzamidine derivatives, process for the preparation thereof and pharmaceutical composition comprising the same” (Dong Wha Pharmaceutical Co., Ltd., priority 2004, dated 2012).
